Assay results reported in publication PMC10303271, “Synthesis and Receptor Binding Studies of α5 GABAAR Selective Novel Imidazodiazepines Targeted for Psychiatric and Cognitive Disorders” (Molecules, 2023).

Columns and labels:
hERG K+ channel = target: T1, hERG K+ channel (Homo sapiens, UniProt Q12809); assay: PDSP radioligand binding at hERG; conditions: human; at 10,000 nM; N = 5; read-out: Binding Affinity at hERG % Inhibition (Primary Binding)
T1 construct: purchased NIMH Psychoactive Drug Screening Program (PDSP)
T1 sequence (Q12809 whole entry): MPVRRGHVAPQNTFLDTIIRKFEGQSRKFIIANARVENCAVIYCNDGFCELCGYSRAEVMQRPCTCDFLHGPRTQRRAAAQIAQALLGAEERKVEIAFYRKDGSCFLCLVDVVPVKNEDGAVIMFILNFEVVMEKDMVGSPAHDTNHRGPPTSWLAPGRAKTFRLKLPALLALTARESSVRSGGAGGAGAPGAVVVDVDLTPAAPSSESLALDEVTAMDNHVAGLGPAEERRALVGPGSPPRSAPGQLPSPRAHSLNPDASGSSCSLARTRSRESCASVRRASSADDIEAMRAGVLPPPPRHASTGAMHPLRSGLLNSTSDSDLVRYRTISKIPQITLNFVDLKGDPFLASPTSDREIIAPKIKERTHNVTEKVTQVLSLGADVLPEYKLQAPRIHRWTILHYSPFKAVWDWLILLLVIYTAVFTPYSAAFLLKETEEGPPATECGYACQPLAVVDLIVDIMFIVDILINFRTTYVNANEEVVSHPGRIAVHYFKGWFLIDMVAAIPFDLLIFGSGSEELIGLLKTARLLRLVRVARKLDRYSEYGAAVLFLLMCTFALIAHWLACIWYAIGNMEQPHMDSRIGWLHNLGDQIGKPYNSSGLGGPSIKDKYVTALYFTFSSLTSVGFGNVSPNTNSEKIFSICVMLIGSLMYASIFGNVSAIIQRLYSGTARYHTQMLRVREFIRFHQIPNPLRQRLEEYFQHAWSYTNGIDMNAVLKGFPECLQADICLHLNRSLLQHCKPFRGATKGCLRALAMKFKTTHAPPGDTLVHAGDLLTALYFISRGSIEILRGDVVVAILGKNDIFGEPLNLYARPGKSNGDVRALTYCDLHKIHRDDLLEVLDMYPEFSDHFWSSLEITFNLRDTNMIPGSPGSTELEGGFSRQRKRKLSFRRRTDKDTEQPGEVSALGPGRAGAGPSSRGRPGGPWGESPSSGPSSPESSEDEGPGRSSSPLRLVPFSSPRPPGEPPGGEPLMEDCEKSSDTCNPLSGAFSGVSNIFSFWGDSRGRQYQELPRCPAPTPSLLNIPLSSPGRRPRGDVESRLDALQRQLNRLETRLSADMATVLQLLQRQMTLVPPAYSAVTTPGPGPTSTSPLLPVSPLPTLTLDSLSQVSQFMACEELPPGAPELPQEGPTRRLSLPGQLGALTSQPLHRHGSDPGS
Procedure, shortened: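 Radioligand binding at NIMH PDSP per its protocol book, in appropriate binding buffer; nonspecific binding defined with 10 µM reference compound. Incubation 90 min at rt in the dark, filtration onto PEI-soaked mats, cold PBS washes, scintillation counting; nonlinear regression, N = 6 replicates.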

Alpha4Beta2 (Rat Brain) = target: T2, Alpha4Beta2 (Rat Brain) (Rattus norvegicus, UniProt P09483+P12390); assay: PDSP primary binding Alpha4Beta2 (Rat Brain); conditions: primary binding, 10,000 nM; last figure of the line = mean of the 4 before it; read-out: Alpha4Beta2 (Rat Brain), PDSP raw data, mean
T2 construct: purchased NIMH Psychoactive Drug Screening Program (PDSP)
T2 sequence (P09483 31-630): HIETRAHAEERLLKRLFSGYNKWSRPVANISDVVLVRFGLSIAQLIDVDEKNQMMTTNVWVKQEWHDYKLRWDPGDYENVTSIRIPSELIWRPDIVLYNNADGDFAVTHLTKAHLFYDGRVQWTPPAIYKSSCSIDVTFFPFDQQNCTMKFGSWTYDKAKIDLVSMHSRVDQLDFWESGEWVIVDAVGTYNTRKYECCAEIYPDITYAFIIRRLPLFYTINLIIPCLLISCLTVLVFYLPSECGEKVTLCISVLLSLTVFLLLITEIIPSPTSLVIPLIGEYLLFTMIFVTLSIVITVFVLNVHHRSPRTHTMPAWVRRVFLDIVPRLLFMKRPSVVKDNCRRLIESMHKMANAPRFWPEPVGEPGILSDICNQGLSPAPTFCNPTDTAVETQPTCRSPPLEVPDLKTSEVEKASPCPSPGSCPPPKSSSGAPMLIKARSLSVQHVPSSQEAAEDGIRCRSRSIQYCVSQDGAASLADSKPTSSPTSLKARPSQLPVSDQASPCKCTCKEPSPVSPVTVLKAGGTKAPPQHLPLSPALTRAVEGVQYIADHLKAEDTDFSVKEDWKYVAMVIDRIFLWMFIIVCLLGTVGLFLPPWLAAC
T2 sequence (P12390 25-500): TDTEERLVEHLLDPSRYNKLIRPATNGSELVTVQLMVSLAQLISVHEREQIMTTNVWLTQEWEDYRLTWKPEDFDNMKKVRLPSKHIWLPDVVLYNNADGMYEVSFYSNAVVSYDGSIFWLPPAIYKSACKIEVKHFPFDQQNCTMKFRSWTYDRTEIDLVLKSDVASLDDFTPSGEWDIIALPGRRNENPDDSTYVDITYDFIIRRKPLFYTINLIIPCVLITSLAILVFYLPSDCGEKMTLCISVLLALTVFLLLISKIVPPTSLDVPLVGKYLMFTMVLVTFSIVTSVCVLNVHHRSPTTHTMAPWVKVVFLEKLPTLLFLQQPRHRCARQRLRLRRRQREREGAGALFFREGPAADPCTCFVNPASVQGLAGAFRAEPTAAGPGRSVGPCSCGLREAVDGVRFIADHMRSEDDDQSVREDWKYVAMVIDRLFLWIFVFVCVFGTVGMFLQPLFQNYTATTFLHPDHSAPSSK
Method: (§1) To determine if any off-target receptor-binding effects are present, all the novel ligands were sent to the National Institute of Mental Health (NIMH), Psychoactive Drug Screening Program (PDSP). The ligands were screened over a panel of 47 receptors, ion channels, and transporters to determine any other possible interactions with […]. The hERG-binding was also determined. […] No binding of the test compounds to calcium channels was observed. […] It is necessary to screen the compounds for hERG-binding during the early process of drug discovery. The unintentional binding of many drugs to hERG can cause blockade of hERG K+ channels in the heart, which can cause many side effects including cardiac arrhythmias and sudden death. […] All of the α5 imidazodiazepines were tested for hERG-binding.
(§2) The NIMH PDSP assay protocol book [https://kidbdev.med.unc.edu/databases/PDSP%20Protocols%20II%202013-03-28.pdf accessed on 23 April 2023]. describes the protocols for primary and secondary radio-ligand binding assays. These assays were carried out in a final volume of 125 µL per well in the appropriate binding buffer.
(§3) The binding of a ligand to a receptor, ion channel, or transporter was determined in the […] of 10 µM of the appropriate reference compound. […] Plates were incubated in the dark for 90 min at rt, and the reactions were stopped by vacuum filtration onto 0.3% polyethyleneimine (PEI) soaked 96-well filter mats using a 96-well Filtermateharvester. This was followed by three washes with cold PBS buffer. Radioactivity was then counted on a Microbeta counter. Nonlinear regression was used to analyze the data with N = 6 replicates.

AT2 = target: T3, AT2 (Homo sapiens, UniProt P50052); assay: PDSP primary binding AT2; conditions: primary binding, 10,000 nM; last figure of the line = mean of the 4 before it
T3 construct: purchased NIMH Psychoactive Drug Screening Program (PDSP)
T3 sequence (P50052 whole entry): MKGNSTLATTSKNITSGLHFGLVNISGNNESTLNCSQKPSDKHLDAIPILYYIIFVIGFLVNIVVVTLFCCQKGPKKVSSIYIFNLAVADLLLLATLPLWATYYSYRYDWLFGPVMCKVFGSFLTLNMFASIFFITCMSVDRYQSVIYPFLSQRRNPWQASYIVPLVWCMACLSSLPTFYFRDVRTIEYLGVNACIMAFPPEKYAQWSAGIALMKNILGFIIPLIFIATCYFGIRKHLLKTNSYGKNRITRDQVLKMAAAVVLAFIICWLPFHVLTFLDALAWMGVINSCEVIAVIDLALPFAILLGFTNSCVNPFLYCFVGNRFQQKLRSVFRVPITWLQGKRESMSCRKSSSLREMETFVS
Method: as §1
The NIMH PDSP assay protocol book [https://kidbdev.med.unc.edu/databases/PDSP%20Protocols%20II%202013-03-28.pdf accessed on 23 April 2023]. describes the protocols for primary and secondary radio-ligand binding assays. […]
The binding of a ligand to a receptor, ion channel, or transporter was determined in the […] of 10 µM of the appropriate reference compound. Nonspecific binding was also determined in the absence and presence of 10 µM of the appropriate reference compound. […] Radioactivity was then counted on a Microbeta counter. […]

Alpha3Beta2 = target: T4, Alpha3Beta2 (Rattus norvegicus, UniProt P04757+P12390); assay: PDSP primary binding Alpha3Beta2; conditions: primary binding, 10,000 nM; last figure of the line = mean of the 4 before it; read-out: Alpha3Beta2, PDSP raw data, mean
T4 construct: purchased NIMH Psychoactive Drug Screening Program (PDSP)
T4 sequence (P04757 26-499): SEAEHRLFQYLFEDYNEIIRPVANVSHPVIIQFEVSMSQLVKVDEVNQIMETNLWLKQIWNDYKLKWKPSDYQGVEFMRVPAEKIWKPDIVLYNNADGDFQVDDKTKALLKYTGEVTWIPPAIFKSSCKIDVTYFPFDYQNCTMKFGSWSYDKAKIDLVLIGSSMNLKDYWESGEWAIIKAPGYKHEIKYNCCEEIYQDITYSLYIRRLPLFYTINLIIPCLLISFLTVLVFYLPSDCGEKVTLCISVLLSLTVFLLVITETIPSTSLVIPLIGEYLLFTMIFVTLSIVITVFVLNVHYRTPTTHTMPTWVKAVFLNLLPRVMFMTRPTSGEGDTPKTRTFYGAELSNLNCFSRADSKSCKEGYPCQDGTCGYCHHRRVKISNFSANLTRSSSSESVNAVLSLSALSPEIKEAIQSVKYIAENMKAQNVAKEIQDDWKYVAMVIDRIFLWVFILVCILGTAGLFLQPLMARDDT
T4 sequence (P12390 25-500): as the sequence (P12390 25-500) above
Method: as §1, §2, §3

DAT = target: T5, DAT (Homo sapiens, UniProt Q01959); assay: PDSP primary binding DAT; conditions: 1.5 h, primary binding, 10,000 nM; last figure of the line = mean of the 4 before it; some tables list DAT twice; read-out: DAT, PDSP raw data, mean
T5 construct: purchased NIMH Psychoactive Drug Screening Program (PDSP)
T5 sequence (Q01959 whole entry): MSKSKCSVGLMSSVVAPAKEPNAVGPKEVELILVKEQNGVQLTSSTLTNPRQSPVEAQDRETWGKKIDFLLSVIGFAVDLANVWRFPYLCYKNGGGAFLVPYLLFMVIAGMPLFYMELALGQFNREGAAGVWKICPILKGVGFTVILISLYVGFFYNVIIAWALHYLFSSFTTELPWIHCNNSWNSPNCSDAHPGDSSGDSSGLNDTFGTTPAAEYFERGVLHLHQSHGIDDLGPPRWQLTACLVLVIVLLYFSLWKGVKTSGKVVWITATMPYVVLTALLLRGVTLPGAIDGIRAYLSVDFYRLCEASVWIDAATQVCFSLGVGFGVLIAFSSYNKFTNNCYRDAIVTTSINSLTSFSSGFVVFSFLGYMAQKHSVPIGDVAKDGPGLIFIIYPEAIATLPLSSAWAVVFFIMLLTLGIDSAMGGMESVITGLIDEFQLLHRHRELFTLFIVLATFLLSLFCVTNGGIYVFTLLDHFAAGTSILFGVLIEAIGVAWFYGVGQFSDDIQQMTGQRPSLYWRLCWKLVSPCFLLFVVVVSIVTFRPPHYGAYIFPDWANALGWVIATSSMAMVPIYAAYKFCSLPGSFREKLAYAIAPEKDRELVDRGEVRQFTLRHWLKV
Method: as §1, §2, §3

Sigma 1 = assay: PDSP primary binding Sigma 1; conditions: primary binding, 10,000 nM; last figure of the line = mean of the 4 before it
Method: as §1, §2, §3

M4 = target: T6, M4 (Homo sapiens, UniProt P08173); assay: PDSP primary binding M4; conditions: primary binding, 10,000 nM; last figure of the line = mean of the 4 before it; read-out: M4, PDSP raw data, mean
T6 construct: purchased NIMH Psychoactive Drug Screening Program (PDSP)
T6 sequence (P08173 1-479): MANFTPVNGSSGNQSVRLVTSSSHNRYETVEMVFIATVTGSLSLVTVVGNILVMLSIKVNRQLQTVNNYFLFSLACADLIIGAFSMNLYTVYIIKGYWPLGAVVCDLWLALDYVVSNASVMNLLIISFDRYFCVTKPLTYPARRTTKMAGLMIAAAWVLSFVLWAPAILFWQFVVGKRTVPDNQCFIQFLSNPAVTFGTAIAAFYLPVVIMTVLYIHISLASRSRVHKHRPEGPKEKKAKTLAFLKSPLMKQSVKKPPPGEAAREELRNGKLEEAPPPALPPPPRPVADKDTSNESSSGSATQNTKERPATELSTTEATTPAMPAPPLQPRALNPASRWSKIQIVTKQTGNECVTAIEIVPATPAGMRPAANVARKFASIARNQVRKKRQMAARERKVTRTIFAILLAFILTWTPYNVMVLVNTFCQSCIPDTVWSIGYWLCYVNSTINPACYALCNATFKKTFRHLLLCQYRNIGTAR
Method: as §1, §2, §3

NOP = target: T7, NOP (Homo sapiens, UniProt P41146); assay: PDSP primary binding NOP; conditions: primary binding, 10,000 nM; last figure of the line = mean of the 4 before it
T7 construct: purchased NIMH Psychoactive Drug Screening Program (PDSP)
T7 sequence (P41146 whole entry): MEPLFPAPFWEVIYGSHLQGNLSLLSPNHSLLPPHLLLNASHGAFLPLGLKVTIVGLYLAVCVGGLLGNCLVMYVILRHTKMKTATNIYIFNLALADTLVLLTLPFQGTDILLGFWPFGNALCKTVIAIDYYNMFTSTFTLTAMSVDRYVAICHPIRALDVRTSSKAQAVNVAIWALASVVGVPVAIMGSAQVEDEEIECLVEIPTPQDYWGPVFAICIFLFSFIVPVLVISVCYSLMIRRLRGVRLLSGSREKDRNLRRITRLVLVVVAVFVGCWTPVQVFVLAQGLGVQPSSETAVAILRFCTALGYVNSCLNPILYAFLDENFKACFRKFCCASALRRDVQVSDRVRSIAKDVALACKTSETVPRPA
Method: as §1, §2, §3

OT = target: T8, OT (Homo sapiens, UniProt P30559); assay: PDSP primary binding OT (Oxytocin); conditions: primary binding, 10,000 nM; last figure of the line = mean of the 4 before it; some tables list it twice; read-out: OT (also Oxytocin), PDSP raw data, mean
T8 construct: purchased NIMH Psychoactive Drug Screening Program (PDSP)
T8 sequence (P30559 1-389): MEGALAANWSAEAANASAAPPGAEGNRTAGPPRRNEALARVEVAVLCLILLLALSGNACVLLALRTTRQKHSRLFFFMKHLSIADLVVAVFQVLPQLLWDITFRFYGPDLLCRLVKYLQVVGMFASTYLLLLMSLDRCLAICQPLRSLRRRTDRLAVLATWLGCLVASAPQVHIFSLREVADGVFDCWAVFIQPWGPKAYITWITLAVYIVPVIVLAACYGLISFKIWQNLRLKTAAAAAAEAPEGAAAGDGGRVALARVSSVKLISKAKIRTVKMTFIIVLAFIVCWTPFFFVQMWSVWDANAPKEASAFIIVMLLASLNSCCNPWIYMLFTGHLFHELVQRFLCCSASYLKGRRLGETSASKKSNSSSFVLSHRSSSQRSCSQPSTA
Method: as §1, §2, §3

CC(C)c1noc(-c2ncn3c2[C@@H](C)N=C(c2ccccc2F)c2cc(Cl)ccc2-3)n1 [Compound 37, (R)-5-(8-Chloro-6-(2′-fluorophenyl)-4-methyl-4H-benzo[f]imidazo[1,5-a][1,4]diazepin-3-yl)-3-isopropyl-1,2,4-oxadiazole] was tested, and the inhibition at 90 min, 10000 nM (hERG K+ channel) was 4.21 ± 10.8%, the inhibition at 10 µM (Alpha4Beta2 (Rat Brain)) was -0.61% and the “AT2, PDSP raw data, mean” value (AT2) was 12.03%. The inhibition at 10 µM (Alpha3Beta2) was 5.77%, the inhibition at 10 µM (DAT) was 37.5% and the “Sigma 1, PDSP raw data, mean” value (Sigma 1) was 5.67%. For the same compound, the inhibition at 10 µM (M4) was -4.01%, the “NOP, PDSP raw data, mean” value (NOP) was -10.12% and the inhibition at 10 µM (OT) was 10.5%.
